Source: paper PMC3390922 (The Journal of Neuroscience, 2010)
Values joined by “and” are separate entries in the source; they are usually repeats but may differ in a detail not shown here. Identical values can stand only once. Counter-ions that a name gives are not always drawn.

Legend:
D1/D5 dopamine receptors = test: Saturation binding of [3H]-SCH23390 to membranes; parameters: species or system mouse; conditions: membranes from C57Bl/6 mice (data not shown)
[1] = in vivo; cited from earlier work
[2] = target: α6* nAChRs (αCtxMII-sensitive) in α4KO mice (Mus musculus, UniProt Q9ERK7+Q9R0W9)
α6* nAChRs (αCtxMII-sensitive) in α4KO mice, sequence (Q9ERK7 26-501): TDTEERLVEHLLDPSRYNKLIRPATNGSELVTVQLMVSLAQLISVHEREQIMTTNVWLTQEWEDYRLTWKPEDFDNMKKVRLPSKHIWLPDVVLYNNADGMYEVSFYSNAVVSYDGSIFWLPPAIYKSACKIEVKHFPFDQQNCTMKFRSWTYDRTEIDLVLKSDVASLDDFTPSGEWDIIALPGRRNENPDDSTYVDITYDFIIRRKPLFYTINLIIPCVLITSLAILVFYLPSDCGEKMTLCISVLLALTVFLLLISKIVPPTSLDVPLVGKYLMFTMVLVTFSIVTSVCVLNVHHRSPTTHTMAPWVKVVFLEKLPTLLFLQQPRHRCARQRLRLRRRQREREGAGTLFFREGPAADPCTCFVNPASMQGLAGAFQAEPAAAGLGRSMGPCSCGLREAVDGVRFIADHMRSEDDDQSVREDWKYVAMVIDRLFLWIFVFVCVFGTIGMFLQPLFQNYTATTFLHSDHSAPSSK
α6* nAChRs (αCtxMII-sensitive) in α4KO mice, sequence (Q8BMN3 31-464, further chain): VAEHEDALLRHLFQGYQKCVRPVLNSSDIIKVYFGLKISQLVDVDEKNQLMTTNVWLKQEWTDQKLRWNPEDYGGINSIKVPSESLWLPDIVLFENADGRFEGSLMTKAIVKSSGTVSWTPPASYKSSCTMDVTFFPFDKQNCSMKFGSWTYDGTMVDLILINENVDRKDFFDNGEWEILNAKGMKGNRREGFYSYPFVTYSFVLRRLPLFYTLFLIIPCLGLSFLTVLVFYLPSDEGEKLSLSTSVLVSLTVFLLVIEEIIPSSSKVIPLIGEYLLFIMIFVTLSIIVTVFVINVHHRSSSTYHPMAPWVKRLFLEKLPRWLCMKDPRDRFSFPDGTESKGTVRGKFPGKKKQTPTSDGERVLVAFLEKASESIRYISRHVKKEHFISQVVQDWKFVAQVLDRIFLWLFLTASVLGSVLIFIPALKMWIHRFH
α6* nAChRs (αCtxMII-sensitive) in α4KO mice, sequence (Q9R0W9 31-494): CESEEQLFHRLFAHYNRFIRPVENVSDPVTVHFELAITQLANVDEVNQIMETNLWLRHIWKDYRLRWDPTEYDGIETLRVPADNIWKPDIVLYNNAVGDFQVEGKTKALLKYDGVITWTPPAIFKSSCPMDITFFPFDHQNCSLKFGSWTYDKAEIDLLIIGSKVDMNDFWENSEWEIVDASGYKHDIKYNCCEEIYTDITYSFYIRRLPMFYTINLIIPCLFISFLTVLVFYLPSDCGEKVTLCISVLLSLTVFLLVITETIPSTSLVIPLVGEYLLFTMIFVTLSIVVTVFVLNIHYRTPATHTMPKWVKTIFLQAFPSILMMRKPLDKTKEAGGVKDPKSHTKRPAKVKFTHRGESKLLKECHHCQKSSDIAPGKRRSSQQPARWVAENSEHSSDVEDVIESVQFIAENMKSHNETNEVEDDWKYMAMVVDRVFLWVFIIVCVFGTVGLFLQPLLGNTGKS

[3] = target: α6* nAChRs (αCtxMII-sensitive, α6β2*) (Mus musculus, UniProt Q9ERK7+Q9R0W9)
α6* nAChRs (αCtxMII-sensitive, α6β2*), sequence (Q9R0W9 31-494): as above
α6* nAChRs (αCtxMII-sensitive, α6β2*), sequence (Q9ERK7 26-501): as the sequence (Q9ERK7 26-501) above
α6* nAChRs (αCtxMII-sensitive, α6β2*), sequence (O70174 31-629, further chain): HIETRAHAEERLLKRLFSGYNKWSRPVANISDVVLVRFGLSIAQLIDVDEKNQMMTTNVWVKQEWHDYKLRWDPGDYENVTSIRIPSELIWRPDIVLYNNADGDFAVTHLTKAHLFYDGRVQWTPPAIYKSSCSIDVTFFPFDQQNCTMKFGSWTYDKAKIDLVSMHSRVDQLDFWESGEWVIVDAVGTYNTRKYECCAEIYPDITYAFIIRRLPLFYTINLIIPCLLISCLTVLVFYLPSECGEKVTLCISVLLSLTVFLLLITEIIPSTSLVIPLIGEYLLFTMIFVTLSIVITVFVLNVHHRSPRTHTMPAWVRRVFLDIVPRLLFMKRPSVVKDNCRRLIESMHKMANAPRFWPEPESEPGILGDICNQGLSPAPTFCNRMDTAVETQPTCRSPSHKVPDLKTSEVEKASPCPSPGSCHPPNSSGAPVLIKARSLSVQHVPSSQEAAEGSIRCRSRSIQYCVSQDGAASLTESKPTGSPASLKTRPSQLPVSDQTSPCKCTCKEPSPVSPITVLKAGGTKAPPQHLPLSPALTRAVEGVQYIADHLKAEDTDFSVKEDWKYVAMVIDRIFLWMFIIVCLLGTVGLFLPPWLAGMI
α6* nAChRs (αCtxMII-sensitive, α6β2*), sequence (Q8BMN3 31-464, further chain): as the sequence (Q8BMN3 31-464, further chain) above

[4] = target: (non-α6) α4β2* nAChRs in α6^L9′S mice (Mus musculus, UniProt O70174+Q9ERK7)
(non-α6) α4β2* nAChRs in α6^L9′S mice, sequence (O70174 31-629): as the sequence (O70174 31-629, further chain) above
(non-α6) α4β2* nAChRs in α6^L9′S mice, sequence (Q9ERK7 26-501): as the sequence (Q9ERK7 26-501) above

[5] = tested on: WT, α6^L9′S, α4KO, and α4KO/α6^L9′S mice; conditions: mouse, in vivo
(non-α6) α4β2* nAChRs = (non-α6) α4β2* nAChRs (Mus musculus, UniProt O70174+Q9ERK7)
(non-α6) α4β2* nAChRs, sequence (O70174 31-629): as the sequence (O70174 31-629, further chain) above
(non-α6) α4β2* nAChRs, sequence (Q9ERK7 26-501): as the sequence (Q9ERK7 26-501) above

α6α4β2β3 nAChRs = conditions: cited from earlier work
[6] = target: α6* nAChRs (αCtxMII-sensitive) in α4KO/α6^L9′S mice (Mus musculus, UniProt Q9ERK7+Q9R0W9, L280S)
α6* nAChRs (αCtxMII-sensitive) in α4KO/α6^L9′S mice, sequence (Q9ERK7 26-501, stated change not applied): as the sequence (Q9ERK7 26-501) above
α6* nAChRs (αCtxMII-sensitive) in α4KO/α6^L9′S mice, sequence (Q8BMN3 31-464, further chain): as the sequence (Q8BMN3 31-464, further chain) above
α6* nAChRs (αCtxMII-sensitive) in α4KO/α6^L9′S mice, sequence (Q9R0W9 31-494 L280S): as the sequence (Q9R0W9 31-494) above, with L250S counted along it

[7] = tested on: DA release in striatal slices; parameters: species or system mouse
D2/D3 dopamine receptors = test: Saturation binding of [3H]-raclopride to membranes; parameters: species or system mouse; conditions: membranes from C57Bl/6 mice (data not shown)

In the case of CN1CCc2cc(Cl)c(O)cc2[C@@H](c2ccccc2)C1 [[^3H]-SCH23390], the Kd (D1/D5 dopamine receptors) is reported as roughly 0.1 nM.

In the case of CN1CCC[C@H]1c1cccnc1 [nicotine, (-)-nicotine tartrate], the “concentration in brain CSF” value [1] is listed as 100 to 500 nM, the Rmax [2] is listed as 3.83 ± 0.13 units and 3.63 ± 0.15 units and the Rmax [3] is listed as 4.6 ± 0.3 units and 3.2 ± 0.3 units. For the same compound, the Rmax [4] was 7.8 ± 0.2 units and 7.4 ± 0.4 units, the “potency and efficacy for locomotor activation” value [5] was “consistently reduced” and the peak locomotor response ([5]; ip, 0.2 mg/kg) was 93 ± 14 ambulations/min and 53 ± 4 ambulations/min. For the same compound, the Rmax ((non-α6) α4β2* nAChRs) was 15.8 ± 0.5 units and 14.5 ± 0.5 units, the EC50 (α6α4β2β3 nAChRs) was 230 nM and the Rmax [6] was 5.24 ± 0.24 units and 4.16 ± 0.06 units.

In the case of NC1=N[C@H](O)[C@H]2[C@H]3O[C@]4(O)O[C@@H]([C@@H](O)[C@@]2(N1)[C@@H]4O)[C@]3(O)CO [tetrodotoxin], the “effect on evoked DA release responses” value [7] is reported as “blocked”.

With CCN1CCC[C@H]1CNC(=O)c1c(O)c(Cl)cc(Cl)c1OC [[^3H]-raclopride] the Kd (D2/D3 dopamine receptors) was roughly 2 nM.
